Measurements published in patent US20250011302A1, “INDOLE BIPYRIMIDINE COMPOUND, AND INTERMEDIATE THEREOF, PREPARATION METHOD THEREFOR AND USE THEREOF” (SHANGHAI ALLIST PHARMACEUTICALS CO., LTD., priority 2021, published 2025).

Test system: Ba/F3 EGFR-Del19/T790M/C797S cells
Assay: Proliferation inhibitory activity against Ba/F3 EGFR-Del19/T790M/C797S cells (PrestoBlue method)
Format: cell-based, murine
Settings: Mus musculus, Ba/F3 cells stably expressing EGFR Del19/T790M/C797S, 72 hours
Procedure: The proliferation inhibitory activity of the compounds in vitro against the Ba/F3 EGFR-Del19/T790M/C797S cells from the murine pro B cell line Ba/F3 that stably express EGFR proteins with Del19/T790M/C797S triple mutations, is determined by the PrestoBlue method.
Cell source: Ba/F3 EGFR-Del19/T790M/C797S cells are purchased from Crown Bioscience (Beijing) Co., Ltd.
Ba/F3 EGFR-Del19/T790M/C797S cells are cultured in RPMI1640 complete medium containing 10% fetal calf serum. Take Ba/F3 EGFR-Del19/T790M/C797S cells in the logarithmic growth phase, inoculate them in a 96-well plate at a cell density of 5000 cells/135 μl complete culture medium/well, and place them at a constant temperature incubator containing 5% CO2 at 37° C. for culturing for 24 hours. […]
Take out the 96-well cell culture plate from the CO2 constant temperature incubator, add 15 μl of Invitrogen™ PrestoBlue™ HS cell viability detection reagent (Cat. No.: P50201) to each well, and continue to incubate for 3 hours in the constant temperature incubator containing 5% CO2 at 37° C. Take out the 96-well cell culture plate and measure the fluorescence at the 560 nm excitation wavelength and 590 nm emission wavelength of a microplate reader. […]
Data were analyzed using GraphPad Prism 8.3 software, and nonlinear S-curve regression was used to fit the data to obtain a dose-effect curve, from which the IC50 value was calculated.

SMILES | IC50 [nM]
CN(C)CCN(C)c1nc(OCC(F)(F)F)c(Nc2nccc(-c3cn(C)c4ccccc34)n2)cc1NC(=O)CCN(C)CCN(C)c1nc(OCC(F)(F)F)c(Nc2nccc(-c3cn(C)c4ccccc34)n2)cc1N [Compound 1] | 1860
C=CC(=O)Nc1cc(Nc2nccc(-c3cn(C)c4ccccc34)n2)c(OCC(F)(F)F)nc1N(C)CCN(C)CCC(=O)Nc1cc(Nc2nccc(-c3cn(C)c4ccccc34)n2)c(OCC(F)(F)F)nc1N(C)CCN(C)C [Compound 4] | 293
